Results: patent US6878689B2, “Preventives or remedies for heart failure” (Kaken Pharmaceutical Co., Ltd., priority 2000, dated 2005)
Where a SMILES comes first, the peptide text is derived from it. [ ]: non-standard residue; d: D form. d2Nal = N[C@H](Cc1ccc2ccccc2c1)C(=O)O

Tested on: anesthetized open-chest rabbits
Assay: Effects of intravenously administered pralmorelin on cardiac function of anesthetized open-chest rabbit
Format: in vivo
Method: [Test Example 2] Effects of Intravenously Administered Pralmorelin on the Cardiac Function of Rabbit
The effects of pralmorelin on cardiac function were evaluated by measuring various parameters [blood pressure, heart rate, systolic left ventricular pressure (LVPsys), and maximal positive dP/dt (+dP/dtmax) obtained by differentiating the waveform of left ventricular pressure (LVP)]. The value of the maximal positive dP/dt for the left ventricular pressure (+dP/dtmax) is particularly important to determine if the cardiotonic action is sufficient to treat acute heart failure. • 1. Test Substance and Reagent • 1) Test Substance
Pralmorelin dihydrochloride (hereunder referred to as KP-102) (prepared by the method described in WO 9304081) was dissolved in distilled water for injection to prepare a 1.5 mg/mL solution. • 2) Control
Male NZW-strain rabbits (Kitayama Labes) weighing about 2 kg were used in the experiment. After arrival, the animals were allowed to eat a solid meal (Labo R Stock, Oriental Yeast Co., Ltd.) and drink water in a room at a temperature of 20±2° C. and at a humidity of 55±15% under 12-hr light/ dark cycles (from 7:00 to 19:00); the animals were kept under these conditions for at least 6 days before use. • 3. Test Method • 1) Measuring the Cardiac Function of Anesthetized Open-Chest Rabbit
Rabbits were anesthetized by administering 30 mg/kg of sodium pentobarbital into the auricular vein at a slow speed with attention to their breathing. The animals were then fixed in supine position and an endotracheal cannula was inserted. Under artificial respiration (tidal volume, 25 mL/breath; ventilation frequency, 45 breaths/min: SN-480-7 of Shinano Seisakusyo), the chest of each animal was opened by midline incision and the pericardium was incised to expose the heart. The left ventricular pressure (LVP) was measured with a pressure transducer (TP-300T, Nihon Kohden) and a pressure amplifier (AG-610G, Nihon Kohden) as a cannula with syringe was inserted from the cardiac apex into the left ventricle. The waveform of LVP was differentiated with a differentiator unit (ED-601, Nihon Kohden) to determine the maximal positive dP/dt(+dP/dtmax), which was used as an index for cardiac contractility. Blood pressure was measured with a pressure amplifier (AP-610G, Nihon Kohden) via a pressure transducer (TP-300T, Nihon Kohden) connected to a cannula inserted into the left femoral artery. Heart rate was measured with a cardiotachometer (AT-601G, Nihon Kohden) that was driven by counting the pulse waves of LVP. The parameters mentioned above were recorded on a recorder (TA-11, Gould). A cannula was inserted into the left femoral vein so as to assist in the administration of the test substance. The rectum temperature of each animal was controlled at 39° C. with a body temperature controller (TK-43, Asahi Denshi). The anesthetic was added as required but additional anesthetization should be avoided during the measurements. • 2) Groups
After each parameter stabilized, distilled water (0.2 mL/kg) was administered over one minute with an infusion pump (FP-W-100, Toyo Sangyo K.K.) and observations were made for 5 minutes after the administration to see whether the vehicle would have no effect. About 5 minutes after the administration of distilled water, the test substance was administered with an infusion pump in a volume of 0.2 mL/kg over one minute according to the grouping method specified above. Each hemodynamic parameter was measured both before administration and 1, 3, 5, 10, 15, 20 and 25 minutes after administration and the percent changes from the basal values were calculated. In some animals, measurement was conducted until 40 minutes after the administration of the test substance. • 4. Statistical Analysis
The results were each expressed by mean ± standard deviation. Any difference between groups was tested by repeated measures ANOVA (analysis of variance); The significance level was set at 5%. • 5. […]

[1] = 300 μg/kg i.v. over one minute, n=4, p<0.01 vs control

C[C@H](NC(=O)[C@@H](Cc1ccc2ccccc2c1)NC(=O)[C@@H](C)N)C(=O)N[C@@H](Cc1c[nH]c2ccccc12)C(=O)N[C@H](Cc1ccccc1)C(=O)N[C@@H](CCCCN)C(N)=O [KP-102, D-alanyl-3-(naphthalen-2-yl)-D-alanyl-L-alanyl-L-tryptophyl-D-phenylalanyl-L-lysinamide] (H-[dA][d2Nal]AW[dF]K-NH2)
overall effect on heart rate (300 μg/kg i.v.): little affected
time until blood pressure baseline value practically restored (300 μg/kg i.v.): ~25 min
Maximum increase in +dP/dtmax, of the baseline value [1]: 22%
Maximum increase in LVPsys, of the baseline value [1]: 13%
drop in heart rate (300 μg/kg i.v., 3 minutes after the administration): 2%
increase in heart rate (300 μg/kg i.v., 15 minutes after the administration): 1%
increase in heart rate (300 μg/kg i.v., 25 minutes after the administration): 2%
period of peak of cardiotonic action (300 μg/kg i.v., LVPsys and +dP/dtmax): 5 to 10 min
time until baseline values of LVPsys and +dP/dtmax restored (300 μg/kg i.v., one case with extended monitoring): ≤ 40 min
effect on mean blood pressure (300 μg/kg i.v., p<0.05 vs control): significant rise of blood pressure
